Measurements as given in patent US4556735A, “Spergualin-related compounds having a phenylene group as well as a process for producing the same” (Zaidan Hojin Biseibutsu Kagaku Kenkyukai, priority 1984, dated 1985).
Counter-ions that a name gives are not always drawn.

What was measured:
rats = test: Toxicity in rats (decrease rate of body weight); assay type: in vivo, rat; settings: intraperitoneal, once a day for 10 days, 6.25 mg/ml in 0.2 ml/100 g
Experimental: The compound No. 1 was dissolved in physiological saline (the concentration of the compound No. 1: 6.25 mg/ml). The obtained solution was administered intraperitoneally to rats once a day for 10 consecutive days in a volume of 0.2 ml/100 g (body weight).
Decrease rate of body weight of rats was determined as follows: [formula]

[1] = Stability of the compounds in aqueous solution (percent residue by high pressure liquid chromatography); assay type: physicochemical; settings: 0.5 (w/w) % in water, 40°±1° C.
Experimental: Each of the compounds of the present invention was dissolved in water to give a concentration of 0.5 (w/w) %. The aqueous solution was held at 40°±1° C. and samples were taken at given intervals. They were subjected to high pressure liquid chromatography and the percent residue was calculated for each sample by measuring the peak area ratio.
The percent residue for the compounds of the present invention after the lapse of a given period is shown in Table 2, with the value for the start of the experiment being taken as 100%.

mouse leukemia L1210 [2] = test: Life extending effect against mouse leukemia L1210; assay type: in vivo; settings: 9 consecutive days, >125 considered effective
Experimental: Leukemia cells L1210 (1×10^5 cells/0.2 ml) were inoculated in the intraperitoneal cavity of CDF1 -SLC female mice (6 mice per group). Two compounds of the present invention were each diluted with physiological saline in various concentrations, and starting on the day following the transplantation, each dilution was administered to the mice for 9 consecutive days in a volume of 0.1 ml 10 g (body weight).
30 Days after the inoculation, the mean survival time (day) for each treated group was calculated, and divided by the mean survival time of the control group, and multiplied by 100 to obtain the percent life prolongation (T/C). T/C values greater than 125 are considered to be effective.

[3] = tested on: mouse leukemia L1210 cells; test: Inhibition of in vitro growth of mouse leukemia L1210 cells; assay type: cell-based; settings: 48 hours at 37° C., 5% CO2
Experimental: Leukemia L1210 cells (1×10^5 /0.2 ml) were transplanted in the intraperitoneal cavity of DBA/2 strain female mice. Four days later, a sample of the abdominal ascites was taken and centrifuged to obtain L1210 cells. These cells were suspended in an RPMI 1640 medium supplemented with fetal bovine serum and 2-mercaptoethanol to have a final concentration of 5×10^4 cells/0.9 ml.
Each of the compounds of the present invention was dissolved in the medium shown above.
A portion (0.9 ml) of the L1210 cell suspension was mixed with 0.1 ml of the test solution ranging from 0.62 to 1000 μg/ml, and the mixture was incubated in a 5% CO2 atmosphere for 48 hours at 37° C. The cell count was determined both before and after the incubation, and the concentration to inhibit the growth of L1210 cells by 50% of the control (IC50) was determined.

Ehrlich carcinoma = settings: cited from earlier work
leukemia EL-4 = settings: cited from earlier work
Sarcoma 180 = settings: cited from earlier work
mouse leukemia L1210 [4] = settings: cited from earlier work
[5] = tested on: Gram-positive microorganisms; settings: cited from earlier work
[6] = prior art statement; cited from earlier work

Row | SMILES | Percent residue in aqueous solution ([1]; Time 0 (taken as 100%)) [%] | Percent residue in aqueous solution ([1]; Time 12 (time unit not given)) [%] | Percent residue in aqueous solution ([1]; Time 24 (time unit not given)) [%] | Percent residue in aqueous solution ([1]; Time 48 (time unit not given)) [%] | Percent residue in aqueous solution ([1]; Time 72 (time unit not given)) [%] | Percent residue in aqueous solution ([1]; Time 120 (time unit not given)) [%] | Percent residue in aqueous solution ([1]; Time 168 (time unit not given)) [%] | IC50 [3] [µg/mL] | further results
1 | N=C(N)Nc1ccc(CCCC(=O)N[C@@H](CO)C(=O)NCCCCNCCCN)cc1 [Compound 1, 10-{N-[4-(4-GP)Butanoyl]-L-seryl}-1,5,10-TAD trihydrochloride] | 100 | 99.8 | 99.6 | 99.8 | 99.5 | 99.6 | 99.5 |  | Decrease rate of body weight of rats (rats): very small; toxicity (rats; rats): a little; T/C (percent life prolongation) (mouse leukemia L1210 [2]; 0.39 mg/kg/day): 149%; T/C (percent life prolongation) (mouse leukemia L1210 [2]; 0.78 mg/kg/day): 406%; T/C (percent life prolongation) (mouse leukemia L1210 [2]; 1.56 mg/kg/day): 435%; T/C (percent life prolongation) (mouse leukemia L1210 [2]; 3.13 mg/kg/day): 435%; T/C (percent life prolongation) (mouse leukemia L1210 [2]; 6.25 mg/kg/day): 435%; T/C (percent life prolongation) (mouse leukemia L1210 [2]; 12.50 mg/kg/day): 420%; T/C (percent life prolongation) (mouse leukemia L1210 [2]; 25.00 mg/kg/day): 178%
2 | N=C(N)Nc1ccc(CCCC(=O)NCC(=O)NCCCCNCCCN)cc1 [Compound 2, 10-{N-[4-(4-GP)Butanoyl]glycyl}-1,5,10-TAD trihydrochloride] | 100 | 99.7 | 99.9 | 99.8 | 99.9 | 100 | 99.8 |  | T/C (percent life prolongation) (mouse leukemia L1210 [2]; 0.39 mg/kg/day): 109%; T/C (percent life prolongation) (mouse leukemia L1210 [2]; 0.78 mg/kg/day): 145%; T/C (percent life prolongation) (mouse leukemia L1210 [2]; 1.56 mg/kg/day): 435%; T/C (percent life prolongation) (mouse leukemia L1210 [2]; 3.13 mg/kg/day): 435%; T/C (percent life prolongation) (mouse leukemia L1210 [2]; 6.25 mg/kg/day): 435%; T/C (percent life prolongation) (mouse leukemia L1210 [2]; 12.50 mg/kg/day): 435%; T/C (percent life prolongation) (mouse leukemia L1210 [2]; 25.00 mg/kg/day): 435%; T/C (percent life prolongation) (mouse leukemia L1210 [2]; 50.00 mg/kg/day): 15%
3 | N=C(N)NCc1ccc(CCC(=O)N[C@@H](CO)C(=O)NCCCCNCCCN)cc1 [Compound 3, 10-{N-[3-(4-GMP)Propanoyl]-L-seryl}-1,5,10-TAD trihydrochloride] | 100 | 99.6 | 99.5 | 99.8 | 99.6 | 99.6 | 99.8 |  | 
4 | N=C(N)NCCCc1ccc(C(=O)N[C@@H](CO)C(=O)NCCCCNCCCN)cc1 [Compound 4, 10-{N-[4-(3-GPro)Benzoyl]-L-seryl}-1,5,10-TAD trihydrochloride] | 100 | 99.6 | 99.9 | 99.6 | 99.7 | 99.9 | 99.5 | 1.1 | 
5 | N=C(N)NCc1cccc(CCC(=O)N[C@@H](CO)C(=O)NCCCCNCCCN)c1 [Compound 5, 10-{N-[3-(3-GMP)Propanoyl]-L-seryl}-1,5,10-TAD trihydrochloride] | 100 | 99.9 | 99.6 | 99.6 | 99.9 | 99.6 | 99.8 |  | 
6 | N=C(N)Nc1ccc(CCCCC(=O)N[C@@H](CO)C(=O)NCCCCNCCCN)cc1 [Compound 6, 10-{N-[5-(4-GP)Pentanoyl]-L-seryl}-1,5,10-TAD trihydrochloride] | 100 | 99.5 | 99.8 | 99.7 | 99.7 | 99.5 | 100 |  | 
7 | N=C(N)NCCCc1ccc(C(=O)NCC(=O)NCCCCNCCCN)cc1 [Compound 7, 10-{N-[4-(3-GPro)Benzoyl]glycyl}-1,5,10-TAD trihydrochloride] | 100 | 99.6 | 99.6 | 100 | 100 | 99.9 | 99.7 | 0.92 | 
8 | N=C(N)NCc1ccccc1CCCCC(=O)N[C@@H](CO)C(=O)NCCCCNCCCN [Compound 8, 10-{N-[5-(2-GMP)Pentanoyl]-L-ceryl}-1,5,10-TAD trihydrochloride] | 100 | 99.7 | 99.9 | 99.5 | 99.8 | 99.7 | 99.8 | 0.97 | 
9 | N=C(N)NCc1ccc(CCC(=O)N[C@@H](CO)C(=O)NCCCCNCCCN)c(Cl)c1 [Compound 9, 10-{N-[3-(2-Chloro-4-GMP)propanoyl]-L-seryl}-1,5,10-TAD trihydrochloride] | 100 | 99.8 | 99.8 | 99.7 | 100 | 99.5 | 99.6 |  | 
10 | N=C(N)NCCCCC(O)CC(=O)NC(O)C(=O)NCCCCNCCCN (stereo not drawn) [Spergualin] | 100 |  |  |  |  |  |  |  | antineoplastic effects (Ehrlich carcinoma): significant antineoplastic effects; antineoplastic effects (leukemia EL-4): significant antineoplastic effects; antineoplastic effects (Sarcoma 180): significant antineoplastic effects; antineoplastic effects (mouse leukemia L1210 [4]): significant antineoplastic effects; inhibit the growth of Gram-positive microorganisms [5]: ability to inhibit the growth; stability in an aqueous solution [6]: unstable
